Assay results as given in patent US12661410B2, “Compounds for targeted degradation of RET” (C4 Therapeutics, Inc., priority 2020, dated 2026).
Where a chain is given by its changes, count along the chain named.

Tests used:
[1] = molecular target: T1, RET(KD: 658-1114 G810R) (Homo sapiens, UniProt P07949, G810R); assay: HiBiT-Degradation, RET G810R degradation assay (Nano-Glo HiBiT Lytic), 293T.165 cells; type: cell-based; conditions: for Emax / DC50: 6.0 hours; for Emax: % remaining protein, read-out: 293T.165 RET(KD: 658-1114 G810R) 6.0 hours (Emax); for DC50: half-maximal degradation concentration, read-out: 293T.165 RET(KD: 658-1114 G810R) 6.0 hours (DC50)
T1 construct: 658-1114; expressed in transfected cells; host or cells: 293T.165 (293T cells, generated in-house)
T1 sequence (P07949 658-1114 G810R): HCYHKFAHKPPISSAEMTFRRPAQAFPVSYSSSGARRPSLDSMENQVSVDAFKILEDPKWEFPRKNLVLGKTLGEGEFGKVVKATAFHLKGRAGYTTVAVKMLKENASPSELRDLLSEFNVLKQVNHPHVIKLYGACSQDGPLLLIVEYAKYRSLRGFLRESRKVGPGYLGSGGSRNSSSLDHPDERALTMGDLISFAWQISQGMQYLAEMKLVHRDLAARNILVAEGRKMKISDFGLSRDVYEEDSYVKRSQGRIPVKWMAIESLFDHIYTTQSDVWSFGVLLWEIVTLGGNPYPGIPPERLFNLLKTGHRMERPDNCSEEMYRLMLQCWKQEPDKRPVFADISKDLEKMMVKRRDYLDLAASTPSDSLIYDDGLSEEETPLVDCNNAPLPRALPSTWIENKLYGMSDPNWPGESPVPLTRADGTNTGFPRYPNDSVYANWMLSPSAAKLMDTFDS
How it was run: (§1)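 Luminescence readout of HiBiT-tagged RET kinase domain remaining after 6 h compound exposure. Cells: 293T.144 (wild type) or 293T.165 (G810R), 11 half-log doses up to 10 μM, duplicates. DC50 and Emax as % remaining protein taken from curve fits.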

[2] = molecular target: T2, RET (658-1114) (Homo sapiens, UniProt P07949); assay: HiBiT-Degradation, RET wild-type degradation assay (Nano-Glo HiBiT Lytic), 293T.144 cells; type: cell-based; conditions: for Emax / DC50: 6.0 hours; for Emax: % remaining protein, read-out: 293T.144 RET (658-1114) 6.0 hours (Emax); for DC50: half-maximal degradation concentration, read-out: 293T.144 RET (658-1114) 6.0 hours (DC50)
T2 construct: 658-1114; expressed in transfected cells; host or cells: 293T.144 (293T cells, generated in-house)
T2 sequence (P07949 658-1114): T1 sequence (P07949 658-1114 G810R) with R153G
How it was run: as §1

Row | SMILES | 293T.165 RET(KD: 658-1114 G810R) 6.0 hours (IP) [nM] [1] | Emax [1] [%] | DC50 [1] [nM] | 293T.144 RET (658-1114) 6.0 hours (IP) [nM] [2] | Emax [2] [%] | DC50 [2] [nM]
1 | CCC1(C(=O)NC2CCC2)CCN(c2ccc(-c3nc(-c4cnn(C5CCN([C@H]6CCN(c7ccc(N[C@H]8CCC(=O)NC8=O)cc7F)CC6(F)F)CC5)c4)cn4ncc(C#N)c34)cn2)CC1 (single isomer, unassigned) [Compound 191] | +++ (<100 nM = +++) | < 30 | < 100 | ++++ (<50 nM = ++++) | < 30 | < 50
2 | CCC1(C(=O)NC2CCC2)CCN(c2ccc(-c3nc(-c4cnn(C5CCN([C@@H]6CCN(c7ccc(N[C@@H]8CCC(=O)NC8=O)cc7F)CC6(F)F)CC5)c4)cn4ncc(C#N)c34)cn2)CC1 (single isomer, unassigned) [Compound 192] | +++ (<100 nM = +++) | < 30 | < 100 | ++++ (<50 nM = ++++) | < 30 | < 50
3 | N#Cc1cnn2cc(-c3cnn([C@H]4CC[C@@H](N5CCN(c6c(F)cc(NC7CCC(=O)NC7=O)cc6F)CC5)CC4)c3)cc(-c3ccc(N4CCC5(CC4)OCc4cccnc45)nc3)c12 (single isomer, unassigned) [Compound 202, 4-(6-(5H-spiro[furo[3,4-b]pyridine-7,4′-piperidin]-1′-yl)pyridin-3-yl)-6-(1-((1s, 4s)-4-(4-(4-((2,6-dioxopiperidin-3-yl)amino)-2,6-difluorophenyl)piperazin-1-yl)cyclohexyl)-1H-pyrazol-4-yl)pyrazolo[1,5-a]pyridine-3-carbonitrile] | ++++ (<50 nM = ++++) | < 30 | < 50 | ++++ (<50 nM = ++++) | < 30 | < 50
4 | N#Cc1cnn2cc(-c3cnn([C@H]4CC[C@@H](N5CCN(c6c(F)cc(NC7CCC(=O)NC7=O)cc6F)CC5)CC4)c3)nc(-c3ccc(N4CCC5(CC4)CCN5c4nccc(Cl)n4)nc3)c12 (single isomer, unassigned) [Compound 204, 4-(6-(1-(4-Chloropyrimidin-2-yl)-1,7-diazaspiro[3.5]nonan-7-yl)pyridin-3-yl)-6-(1-((1s, 4s)-4-(4-(4-((2,6-dioxopiperidin-3-yl)amino)-2,6-difluorophenyl)piperazin-1-yl)cyclohexyl)-1H-pyrazol-4-yl)pyrazolo[1,5-a]pyrazine-3-carbonitrile] | +++ (<100 nM = +++) | < 30 | < 100 | ++++ (<50 nM = ++++) | < 30 | < 50

Further lines, results first:

Row | 293T.165 RET(KD: 658-1114 G810R) 6.0 hours (IP) [nM] [1] | Emax [1] [%] | DC50 [1] [nM] | 293T.144 RET (658-1114) 6.0 hours (IP) [nM] [2] | Emax [2] [%] | DC50 [2] [nM] | SMILES
5 | ++++ (<50 nM = ++++) | < 30 | < 50 | ++++ (<50 nM = ++++) | < 30 | < 50 | CCC1(C(=O)NC(C)C)CCN(c2ccc(-c3cc(-c4cnn([C@H]5CC[C@H](N6CCC(c7ccc(N[C@H]8CCC(=O)NC8=O)cc7F)CC6)CC5)c4)cn4ncc(C#N)c34)cn2)CC1 (single isomer, unassigned) [Compound 194]
6 | ++++ (<50 nM = ++++) | < 30 | < 50 | ++++ (<50 nM = ++++) | < 30 | < 50 | CCC1(C(=O)NC(C)C)CCN(c2ccc(-c3cc(-c4cnn([C@H]5CC[C@H](N6CCC(c7ccc(N[C@@H]8CCC(=O)NC8=O)cc7F)CC6)CC5)c4)cn4ncc(C#N)c34)cn2)CC1 (single isomer, unassigned) [Compound 195]
7 | ++++ (<50 nM = ++++) | < 30 | < 50 | ++++ (<50 nM = ++++) | < 30 | < 50 | CO[C@@H](C(=O)N1CCN(c2ccc(-c3nc(-c4cnn([C@H]5CC[C@@H](N6CCN(c7c(F)cc(NC8CCC(=O)NC8=O)cc7F)CC6)CC5)c4)cn4ncc(C#N)c34)cn2)CC1)c1ccccc1 (single isomer, unassigned) [Compound 201]
8 | ++++ (<50 nM = ++++) | < 30 | < 50 | ++++ (<50 nM = ++++) | < 30 | < 50 | COc1ccc(NC2CCN(c3ccc(-c4nc(-c5cnn([C@H]6CC[C@@H](N7CCN(c8c(F)cc(NC9CCC(=O)NC9=O)cc8F)CC7)CC6)c5)cn5ncc(C#N)c45)cn3)CC2)cn1 (single isomer, unassigned) [Compound 203, 6-(1-((1s, 4s)-4-(4-(4-((2,6-Dioxopiperidin-3-yl)amino)-2,6-difluorophenyl)piperazin-1-yl)cyclohexyl)-1H-pyrazol-4-yl)-4-(6-(4-((6-methoxypyridin-3-yl)amino)piperidin-1-yl)pyridin-3-yl)pyrazolo[1,5-a]pyrazine-3-carbonitrile]
9 | ++++ (<50 nM = ++++) | < 30 | < 50 | ++++ (<50 nM = ++++) | < 30 | < 50 | CCC1(C(=O)NC2CCOCC2)CCN(c2ccc(-c3nc(-c4cnn([C@H]5CC[C@H](N6CCC(c7ccc(N[C@@H]8CCC(=O)NC8=O)cc7F)CC6)CC5)c4)cn4ncc(C#N)c34)cn2)CC1 (stereo in doubt) [Compound 143, 1-(5-(3-cyano-6-(1-((1R,4r)-4-(4-(4-(((R)-2,6-dioxopiperidin-3-yl)amino)-2-fluorophenyl)piperidin-1-yl)cyclohexyl)-1H-pyrazol-4-yl)pyrazolo[1,5-a]pyrazin-4-yl)pyridin-2-yl)-4-ethyl-N-(tetrahydro-2H-pyran-4-yl)piperidine-4-carboxamide]
10 | ++++ (<50 nM = ++++) | < 30 | < 50 | ++++ (<50 nM = ++++) | < 30 | < 50 | CCC1(C(=O)NC2CCOCC2)CCN(c2ccc(-c3nc(-c4cnn([C@H]5CC[C@H](N6CCC(c7ccc(N[C@H]8CCC(=O)NC8=O)cc7F)CC6)CC5)c4)cn4ncc(C#N)c34)cn2)CC1 (stereo in doubt) [Compound 144, 1-(5-(3-cyano-6-(1-((1S,4r)-4-(4-(4-(((S)-2,6-dioxopiperidin-3-yl)amino)-2-fluorophenyl)piperidin-1-yl)cyclohexyl)-1H-pyrazol-4-yl)pyrazolo[1,5-a]pyrazin-4-yl)pyridin-2-yl)-4-ethyl-N-(tetrahydro-2H-pyran-4-yl)piperidine-4-carboxamide]
